From PMC3448000 (Biochemistry, 2012)
“And” between values parts separate entries of the source, which are not always exact repeats. Equal entries are not always repeated. Where two headings read alike, the source gives them in different places. Values belong to the compound of their own block, whether it stands above or below them.

How the values were obtained:
[1] = tested on: CYP3A4; details: CYP3A4 Supersomes, cited from earlier work
[2] = tested on: CYP3A4; details: cited from earlier work
[3] = biological target: T1, CYP3A4 (Homo sapiens, UniProt P08684); experiment: Substrate depletion by CYP3A4 Supersomes; type: in vitro ADME
[4] = tested on: CYP3A4; experiment: UV/vis absorbance titration of purified CYP3A4; type: binding, human; details: for optical binding spectrum type: UV/vis difference spectrum; for Soret Red Shift: comparison of 1,2,3-TRZ and 17-click
[5] = cited from earlier work; for pKa: solution pKa
[6] = tested on: CYP2C9 (hepta mutant); experiment: UV/vis absorbance titration of purified CYP2C9; type: binding, human
[7] = tested on: human Methionine Amino Peptidase 2; details: cited from earlier work
[8] = biological target: T1, CYP3A4; experiment: Inhibition of testosterone 6β-hydroxylation by CYP3A4 in Supersomes; type: biochemical; details: 50 μM testosterone, LC-MS/MS
[9] = tested on: CYP2B4; details: 25°C; relative to 1-PI / 4-PI; cited from earlier work
[10] = tested on: CYP3A4; details: 5–30 °C, 100 mM KPi pH 7.4 + 20% glycerol
[11] = 20°C, 100 mM KPi pH 7.4 + 20% glycerol

T1 sequence (P08684 whole entry): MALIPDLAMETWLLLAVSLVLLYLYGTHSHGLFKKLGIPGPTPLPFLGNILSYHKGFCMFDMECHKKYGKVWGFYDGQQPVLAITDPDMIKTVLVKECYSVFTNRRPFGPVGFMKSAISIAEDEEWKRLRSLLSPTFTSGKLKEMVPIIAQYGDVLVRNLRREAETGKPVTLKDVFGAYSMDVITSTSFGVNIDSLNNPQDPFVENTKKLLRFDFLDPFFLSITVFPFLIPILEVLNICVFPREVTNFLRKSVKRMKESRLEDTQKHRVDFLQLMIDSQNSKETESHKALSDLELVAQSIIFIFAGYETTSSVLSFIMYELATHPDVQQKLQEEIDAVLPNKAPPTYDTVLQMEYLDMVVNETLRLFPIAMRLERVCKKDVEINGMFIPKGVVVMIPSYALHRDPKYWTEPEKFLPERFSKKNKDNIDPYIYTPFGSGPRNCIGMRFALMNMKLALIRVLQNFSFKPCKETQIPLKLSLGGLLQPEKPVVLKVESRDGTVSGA

Structure (SMILES): c1nc[nH]n1 [1,2,4-TRZ, 1H-1,2,4-triazole]
pKa [5]: 2.45
Soret band red shift ([6]; 20°C): 5 nm
Absmax (1μM), first value of two site fit ([6]; 20°C, two site model): 0.023
Absmax (1μM), second value of two site fit ([6]; 20°C, two site model): 0.044
Kd ([6]; read-out: KD1, 20°C, two site binding model, first equivalent): 198 µM
Kd ([6]; read-out: KD2, 20°C, two site binding model, second low affinity equivalent): 2850 µM
Abs390 (1μM), estimate of efficiency of type II ligand to decrease high spin enzyme fraction ([4]; 20°C): −0.025
Soret band red shift ([4]; 20°C): 6 nm
Absmax (1μM), first value of two site fit ([4]; 20°C, two site model): 0.0065
Absmax (1μM), second value of two site fit ([4]; 20°C, two site model): 0.050
Kd ([4]; read-out: KD1, 20°C, two site binding model, first (high affinity) equivalent): 39 µM
Kd ([4]; read-out: KD2, 20°C, two site binding model, second (low affinity) equivalent): 4800 µM

Structure (SMILES): Cc1cccc(-c2c[nH]nn2)c1 [4-(3-methylphenyl)-1H-1,2,3-triazole]
affinity [7]: 0.018 µM

compound remaining ([3]; 2.5 μM substrate, 25 min incubation, 100 nM CYP3A4 in Supersomes): ~ 50%
metabolism slowed relative to the parent molecule ([3]; CYP3A4 Supersomes, relative to 17EE): 3 – 10 fold
Km ([3]; read-out: KM for total metabolism, substrate depletion, CYP3A4 Supersomes): 2.5 ± 0.4 µM
kcat for total metabolism ([3]; substrate depletion, CYP3A4 Supersomes): 0.035 ± 0.005 s⁻¹
IC50 [8]: 17 ± 6 µM
Kd ([4]; 25°C, 100 mM KPi, hyperbolic binding model): 45.8 µM and 46 µM
optical binding spectrum type [4]: type II
Soret Red Shift [4]: 2 nm
Kd ([4]; read-out: KD200mM, 200 mM KPi): 78 µM
Structure (SMILES): CC12CCC3c4ccc(O)cc4CCC3C1CCC2(O)c1cn[nH]n1 (stereo not drawn) [17-click, 17α-(2H-2,3,4-triazolyl)-estradiol]

Structure (SMILES): Clc1ccc(-n2ccnc2)cc1 [1-CPI]
ΔΔH°binding on chloro substitution [9]: -0.07 kcal/mol

ΔH°binding [10]: -8.1 ± 0.3 kcal/mol
ΔS°binding [10]: −10 ± 1 cal/mol/K
Structure (SMILES): c1c[nH]cn1 [IMZ, imidazole]
pKa298K ([5]; proton dissociation in 100 mM potassium chloride): 7.09 ± 0.1
pKa [5]: 6.99

Structure (SMILES): c1c[nH]nn1 [1,2,3-TRZ, 1H-1,2,3-triazole]
pKa [5]: 1.15
Absmax (1μM), maximum peak trough intensity normalized to 1 μM ([6]; 20°C): 0.041
Soret band red shift ([6]; 20°C): 2 nm
Kd [6, 11]: 10000 µM
optical binding spectrum type ([6]; UV/vis difference spectrum): type II
fold lower affinity vs. 1,2,4-TRZ ([6]; from KD): ~50 fold
fold lower affinity vs. IMZ ([6]; from KD): ~ 101 fold
Abs390 (1μM), estimate of efficiency of type II ligand to decrease high spin enzyme fraction ([4]; 20°C): −0.023
Absmax (1μM), maximum peak trough intensity normalized to 1 μM ([4]; 20°C): 0.058
Soret band red shift ([4]; 20°C): 6 nm
Kd [4, 11]: 14300 µM
optical binding spectrum type [4]: type II
Soret Red Shift [4]: 6 nm
fold lower affinity vs. IMZ ([4]; from KD): ~ 38 fold
ΔAbsmax (1μM), peak minus trough intensity from difference spectrum ([4]; normalized to 1 μM): 0.058
ΔH°binding [10]: -8.8 ± 0.1 kcal/mol
ΔS°binding [10]: −22 ± 0.4 cal/mol/K
